In article PMC11706420, “Establishing a physiologically based pharmacokinetic framework for aldehyde oxidase and dual aldehyde oxidase‐CYP substrates” (CPT: Pharmacometrics & Systems Pharmacology, 2024):

Columns and labels:
[1] = target: T1, aldehyde oxidase (AO) (Homo sapiens, UniProt Q06278); experiment: In vitro AO inhibition (literature); conditions: Figure 5
T1 sequence (Q06278 1-1338): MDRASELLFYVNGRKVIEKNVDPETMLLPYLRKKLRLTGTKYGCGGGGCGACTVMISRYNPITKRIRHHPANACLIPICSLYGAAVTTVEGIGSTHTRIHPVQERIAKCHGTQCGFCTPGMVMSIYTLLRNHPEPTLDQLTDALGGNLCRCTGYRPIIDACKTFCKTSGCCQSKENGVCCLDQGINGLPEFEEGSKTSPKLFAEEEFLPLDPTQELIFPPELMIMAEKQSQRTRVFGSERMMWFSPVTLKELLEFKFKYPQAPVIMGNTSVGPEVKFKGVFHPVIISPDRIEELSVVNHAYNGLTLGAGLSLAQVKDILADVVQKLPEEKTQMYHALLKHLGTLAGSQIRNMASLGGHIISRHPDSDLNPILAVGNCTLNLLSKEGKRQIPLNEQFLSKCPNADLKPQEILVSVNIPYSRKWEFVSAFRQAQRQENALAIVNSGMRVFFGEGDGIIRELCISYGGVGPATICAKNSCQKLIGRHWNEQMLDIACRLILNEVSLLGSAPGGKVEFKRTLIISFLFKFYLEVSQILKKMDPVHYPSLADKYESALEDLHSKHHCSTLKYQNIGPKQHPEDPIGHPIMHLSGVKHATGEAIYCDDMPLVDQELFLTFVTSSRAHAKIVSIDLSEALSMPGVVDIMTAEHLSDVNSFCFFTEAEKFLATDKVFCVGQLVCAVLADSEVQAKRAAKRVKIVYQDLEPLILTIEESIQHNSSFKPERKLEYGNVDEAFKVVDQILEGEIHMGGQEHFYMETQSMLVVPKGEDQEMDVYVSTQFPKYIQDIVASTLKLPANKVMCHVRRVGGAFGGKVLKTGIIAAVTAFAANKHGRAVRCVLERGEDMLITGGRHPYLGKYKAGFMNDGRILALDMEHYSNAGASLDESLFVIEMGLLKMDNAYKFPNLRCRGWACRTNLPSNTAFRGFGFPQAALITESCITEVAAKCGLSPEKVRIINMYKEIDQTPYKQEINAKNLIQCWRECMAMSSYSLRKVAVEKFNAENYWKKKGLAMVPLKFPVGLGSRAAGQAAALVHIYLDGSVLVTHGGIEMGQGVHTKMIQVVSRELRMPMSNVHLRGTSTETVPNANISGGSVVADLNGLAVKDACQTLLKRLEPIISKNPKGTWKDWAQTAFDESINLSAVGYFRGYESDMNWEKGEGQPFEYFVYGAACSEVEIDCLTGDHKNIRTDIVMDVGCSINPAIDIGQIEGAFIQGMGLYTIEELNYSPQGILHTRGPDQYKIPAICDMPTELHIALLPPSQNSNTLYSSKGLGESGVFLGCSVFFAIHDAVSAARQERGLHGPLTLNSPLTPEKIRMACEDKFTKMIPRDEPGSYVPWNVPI
Excerpt: (§1) Supplement 5. Exploratory analysis to evaluate potential AO-mediated DDI risks […]
(§2) Semi-mechanistic model for AO-mediated DDI risk predictions
(§3) Supp. Table 4. Summary of inhibitor parameters used in the semi -mechanistic static model to evaluate the risk of AO -mediated DDIs
(§4) Semi-mechanistic model for AO mediated DDI risk predictions: […]
(§5) using the semi-mechanistic static model with listed parameters in Suppl. Table 4. The most conservative approach is used for all compounds with maximum Cmax,u and minimum Ki,u data available. […]
(§6) [I] is the unbound concentration of inhibitors in the liver and was designated as the unbound maximum systemic concentration of inhibitors as a surrogate. 27 Due to the lack of AO kdeg values in the literature, the arithmetic means of all reported P450 kdeg (0.00026 min-1) was used.28, 29 […]
(§7) Table S4. Summary of inhibitor parameters used in the semi-mechanistic static model to evaluate the risk of […]
(§8) bSimcyp v.21 Compound Repository […]
(§9) dCorrected for the 0.05 mg/mL cytosolic protein from the measured fuinc at 1.5 mg/mL cytosolic protein34, 36

[2] = Inhibitor plasma exposure and plasma binding (literature); format: in vivo, human; conditions: Figure 5
Excerpt: as §1, §2, §3, §4, §5, §6, §7, §8, §9

[3] = target: T1, aldehyde oxidase (AO); conditions: cited from earlier work; for Mode of inhibition: ref suppl. 30, 31, 32, 35, 59
[4] = test system: UGT1A1; design: method as in suppl. 32; conditions: ref suppl. 32; cited from earlier work
[5] = test system: UGT1A3; design: method as in suppl. 32; conditions: ref suppl. 32; cited from earlier work
[6] = in vivo; cited from earlier work
[7] = target: T1, aldehyde oxidase (AO); conditions: cited from earlier work

Row | Compound | Ki ([1]; KI,u) [nM] | Ki ([1]; Ki,u) [nM] | Cmax,u [2] [µM] | Mode of inhibition [3] | IC50 [4] [nM] | Ki [5] [nM] | Cmax [6] [µM] | fmAO of victim drug in AO DDI reports [7] | Ki ([1]; cytosol, KI,u) [nM] | Ki ([1]; cytosol, Ki,u) [nM] | Maximal inactivation rate (kinact) ([3]; ref suppl. 32) [min⁻¹]
1 | C#Cc1cccc(Nc2ncnc3cc(OCCOC)c(OCCOC)cc23)c1 [Erlotinib] | 500 | 130 | 0.42 | Time-dependent | 1340 | 3020 | 6.06 | – | – | – | –
2 | O=C(Nc1ccc(OC(F)(F)F)cc1)c1sccc1NCc1ccnc2ccccc12 [OSI-930] | – | – | – | – | – | – | – | 0.46 | – | – | –
3 | C#Cc1cccc(Nc2ncnc3cc4c(cc23)OCCOCCOCCO4)c1 [Icotinib] | – | – | 0.57 | Time-dependent | 12200 | 25600 | – | – | 920 | 350 | 0.55
4 | NC(=O)c1nc(F)c[nH]c1=O [favipiravir] | – | – | – | – | – | – | – | 0.9 | – | – | –
